Our source for the Activity, inhibition of growth and IC50 values is ChEMBL document CHEMBL3351988, “Synthesis and biological evaluation of novel 6-chloro-quinazolin derivatives as potential antitumor agents” (Eur J Med Chem, 2014).

Assay [1] relates to MGC-803. The experiment in a line: Induction of apoptosis in human MGC803 cells assessed as DNA fragmentation at 10 uM after 12 hrs by TUNEL assay. Type of assay: functional, cell-based.
The test system of assay [2] is MGC-803. The experiment in a line: Induction of apoptosis in human MGC803 cells assessed as chromatin condensation at 1 to 10 uM after 12 hrs by AO/EB staining based fluorescence microscopy. The format is functional, cell-based.
Assay [3] has as its system MGC-803. Description: Growth inhibition of human MGC803 cells at 10 uM after 72 hrs by MTT assay. The format is functional. The settings on record: MGC-803, 72 h, read-out: GI.
The test system of assay [4] is MGC-803. The experiment in a line: Induction of apoptosis in human MGC803 cells at 1 uM after 24 hrs by Annexin V-FITC staining based flow cytometry. The format is functional.
Assay [5] concerns Bcap37. Description: Growth inhibition of human Bcap37 cells at 10 uM after 72 hrs by MTT assay. The following applies: Bcap37, 72 h, read-out: GI. The format is functional.
Assay [6] relates to MGC-803. The experiment in a line: Induction of apoptosis in human MGC803 cells at 10 uM after 12 hrs by Annexin V-FITC staining based flow cytometry. Type of assay: functional.
In assay [7] the test system is Bcap37. Description: Growth inhibition of human Bcap37 cells after 72 hrs by MTT assay. Type of assay: functional, cell-based. The settings on record: Bcap37, 72 h.
Assay [8] has as its system MGC-803. The experiment in a line: Induction of apoptosis in human MGC803 cells assessed as cell volume reduction at 1 to 10 uM after 12 hrs by AO/EB staining based fluorescence microscopy. Type of assay: functional.
The subject of assay [9] is Bcap37. Description: Induction of apoptosis in human Bcap37 cells assessed as nuclear fragmentation at 1 to 10 uM after 12 hrs by AO/EB staining based fluorescence microscopy. Type of assay: functional, cell-based.
The subject of assay [10] is MGC-803. The experiment in a line: Induction of apoptosis in human MGC803 cells at 5 uM after 24 hrs by Annexin V-FITC staining based flow cytometry. Type of assay: functional.
Assay [11] is described as follows: Growth inhibition of human PC3 cells after 72 hrs by MTT assay. The following applies: PC-3, 72 h. The format is functional, cell-based.
Assay [12] deals with MGC-803. Description: Induction of apoptosis in human MGC803 cells at 5 uM after 6 hrs by Annexin V-FITC staining based flow cytometry. The format is functional.
For assay [13], the system named is Bcap37. Description: Induction of apoptosis in human Bcap37 cells assessed as condensed chromatin at 1 to 10 uM after 12 hrs by Hoechst 33258 staining based fluorescence microscopy. The format is functional, cell-based.
Assay [14] relates to MGC-803. Description: Induction of apoptosis in human MGC803 cells at 1 uM after 6 hrs by Annexin V-FITC staining based flow cytometry. The format is functional.
Assay [15] deals with Bcap37. Description: Induction of apoptosis in human Bcap37 cells assessed as DNA fragmentation at 10 uM after 12 hrs by TUNEL assay. The format is functional, cell-based.
Assay [16] concerns MGC-803. Description: Induction of apoptosis in human MGC803 cells assessed as condensed chromatin at 1 to 10 uM after 12 hrs by Hoechst 33258 staining based fluorescence microscopy. Type of assay: functional, cell-based.
Assay [17] concerns MGC-803. Description: Induction of apoptosis in human MGC803 cells at 10 uM after 24 hrs by Annexin V-FITC staining based flow cytometry. Type of assay: functional.
Assay [18] concerns MGC-803. Description: Induction of apoptosis in human MGC803 cells at 10 uM after 6 hrs by Annexin V-FITC staining based flow cytometry. The format is functional.
In assay [19] the test system is MGC-803. The experiment in a line: Induction of apoptosis in human MGC803 cells assessed as nuclear fragmentation at 1 to 10 uM after 12 hrs by AO/EB staining based fluorescence microscopy. The format is functional, cell-based.
The subject of assay [20] is Bcap37. Description: Induction of apoptosis in human Bcap37 cells assessed as cell volume reduction at 1 to 10 uM after 12 hrs by AO/EB staining based fluorescence microscopy. The format is functional.
Assay [21] has as its system MGC-803. Description: Induction of apoptosis in human MGC803 cells at 5 uM after 12 hrs by Annexin V-FITC staining based flow cytometry. Type of assay: functional.
Assay [22] is described as follows: Growth inhibition of human PC3 cells at 10 uM after 72 hrs by MTT assay. Type of assay: functional. The settings on record: PC-3, 72 h, read-out: GI.
In assay [23] the test system is MGC-803. Description: Induction of apoptosis in human MGC803 cells at 1 uM after 12 hrs by Annexin V-FITC staining based flow cytometry. Type of assay: functional.
For assay [24], the system named is Bcap37. Description: Induction of apoptosis in human Bcap37 cells assessed as chromatin condensation at 1 to 10 uM after 12 hrs by AO/EB staining based fluorescence microscopy. The format is functional, cell-based.
Assay [25] has as its system MGC-803. Description: Growth inhibition of human MGC803 cells after 72 hrs by MTT assay. Type of assay: functional, cell-based. The settings on record: MGC-803, 72 h.
Assay [26] concerns MGC-803. The experiment in a line: Induction of apoptosis in human MGC803 cells assessed as condensed chromatin at 10 uM after 12 hrs by Hoechst 33258 staining based fluorescence microscopy. The format is functional, cell-based.
The test system of assay [27] is Bcap37. The experiment in a line: Induction of apoptosis in human Bcap37 cells assessed as early apoptotic cell level at 10 uM after 12 hrs by AO/EB staining based fluorescence microscopy. Type of assay: functional.
The test system of assay [28] is MGC-803. Description: Induction of apoptosis in human MGC803 cells assessed as late apoptotic cell level at 10 uM after 12 hrs by AO/EB staining based fluorescence microscopy. Type of assay: functional.
For assay [29], the system named is MGC-803. Description: Induction of apoptosis in human MGC803 cells assessed as early apoptotic cell level at 10 uM after 12 hrs by AO/EB staining based fluorescence microscopy. The format is functional.
For assay [30], the system named is Bcap37. The experiment in a line: Induction of apoptosis in human Bcap37 cells assessed as condensed chromatin at 10 uM after 12 hrs by Hoechst 33258 staining based fluorescence microscopy. The format is functional, cell-based.
Assay [31] has as its system Bcap37. Description: Induction of apoptosis in human Bcap37 cells assessed as late apoptotic cell level at 10 uM after 12 hrs by AO/EB staining based fluorescence microscopy. The format is functional.

Where a name gives a salt, the structure may show the parent alone. Activity calls are given as the source filed them. The rule behind the calls is not given here.

As to `O=C(/C=C/c1ccc(Oc2ncnc3ccc(Cl)cc23)cc1)/C=C/c1cc([N+](=O)[O-])ccc1Cl`, the outcome in assay [1], in assay [2], in assay [8], in [9], in assay [13] and in [15] was Active. In addition, the outcome in assay [16], in assay [19], in assay [20] and in assay [24] was Active. The inhibition of growth at 10 µM in assay [3] stood at 86.7%; in assay [5], 72.5%; in [22], 76.8%. The Activity in assay [4] was determined as 4.3%; in assay [6], 8.9%; in [10], 9.8%; in assay [12], 1.7%; in [14] it was 1.2%; in [17] it was 21.9%. Also, the Activity came to 4.2% in assay [18], 5.6% in assay [21] and 1.8% in [23]. Moreover, the IC50 was 9.84 µM in [7], 3.15 µM in [11] and 2.15 µM in assay [25].

Take `COc1cccc2c1C(=O)c1c(O)c3c(c(O)c1C2=O)C[C@@](O)(C(=O)CO)C[C@@H]3O[C@H]1C[C@H](N)[C@H](O)[C@H](C)O1` [DOXORUBICIN HYDROCHLORIDE]: the figures for the inhibition of growth at 10 µM in assay [3], in assay [5] and in assay [22] were 95.8%, 96.2% and 93.5%, respectively. Moreover, the IC50 in assay [7] was determined as 0.94 µM; in assay [11], 0.8 µM; in [25] it was 0.71 µM.

With `O=C(/C=C/c1ccc(Oc2ncnc3ccc(Cl)cc23)cc1)/C=C/c1ccc(Cl)c([N+](=O)[O-])c1`, the results for the inhibition of growth at 10 µM in assay [3], in assay [5] and in assay [22] were 66.2%, 56.3% and 56.3%, respectively. Besides, the IC50 in [7] worked out at 16.2 µM; in assay [11], 11.8 µM; in assay [25], 7.19 µM.

Regarding `CC[C@@]1(O)C(=O)OCc2c1cc1n(c2=O)Cc2cc3cc(O)ccc3nc2-1` [HYDROXYCAMPTOTHECIN], the outcome in assay [1], in [26], in assay [27], in [28], in assay [29] and in assay [30] was Active. Moreover, the result in assay [15] and in assay [31] was Active. The Activity in assay [4] was 3.8%; in assay [6], 9.1%; in assay [10], 7.3%; in [12], 1.8%; in assay [14], 1.3%; in assay [17], 18.6%. Besides, the figures for the Activity in assay [18], in assay [21] and in assay [23] were 3.5%, 6% and 2.1%, respectively.

As for `O=C(/C=C/c1ccccc1Oc1ncnc2ccc(Cl)cc12)/C=C/c1c(Cl)cccc1Cl`, the inhibition of growth at 10 µM is 69.3% in assay [3], 67.1% in assay [5] and 70.1% in [22]. Further, the IC50 in assay [7] turned out to be 11.3 µM; in assay [11] it was 7.98 µM; in [25] it was 5.17 µM.

For `O=C(/C=C/c1ccccc1Oc1ncnc2ccc(Cl)cc12)/C=C/c1cccc(Cl)c1Cl`, the inhibition of growth at 10 µM in assay [3] came out at 76.5%; in assay [5] it was 70.2%; in assay [22], 73.8%. Further, the 50% inhibitory concentration (IC50) in assay [7] was found to be 11.5 µM; in assay [11] it was 8.35 µM; in assay [25], 5.21 µM.

Regarding `O=C(/C=C/c1ccc(Oc2ncnc3ccc(Cl)cc23)cc1)/C=C/c1c(Cl)cccc1Cl`, the inhibition of growth at 10 µM is 61.7% in assay [3], 62.5% in [5] and 67.5% in [22]. For the same compound, the 50% inhibitory concentration (IC50) in [7] stood at 13.8 µM; in assay [11], 9.3 µM; in assay [25], 6.77 µM.

In the case of `O=C(/C=C/c1ccc(Oc2ncnc3ccc(Cl)cc23)cc1)/C=C/c1ccc(Cl)c(Cl)c1`, the inhibition of growth at 10 µM was determined as 50.5% in [3], 34.5% in assay [5] and 33.5% in assay [22]. In addition, the values for the IC50 in assay [7], in assay [11] and in [25] were 27.9 µM, 18.8 µM and 16.9 µM, respectively.

With `O=C(/C=C/c1ccc(Oc2ncnc3ccc(Cl)cc23)cc1)/C=C/c1cccc(Cl)c1Cl`, the inhibition of growth at 10 µM in assay [3] is 68.5%; in [5] it was 61.7%; in assay [22], 67.4%. The IC50 in [7] amounted to 14.3 µM; in assay [11], 10.2 µM; in assay [25], 7.3 µM.

As for `O=C(/C=C/c1ccc(Cl)c(Cl)c1)/C=C/c1ccccc1Oc1ncnc2ccc(Cl)cc12`, the inhibition of growth at 10 µM stood at 56.7% in assay [3], 38.2% in assay [5] and 42.2% in [22]. For the same compound, the IC50 in [7] is 21.2 µM; in assay [11], 18.3 µM; in [25] it was 16.1 µM.

Take `O=C(/C=C/c1cc([N+](=O)[O-])ccc1Cl)/C=C/c1ccccc1Oc1ncnc2ccc(Cl)cc12`: the result in assay [1], in assay [2], in [8], in assay [9], in assay [13] and in assay [15] was Active. Further, the result in assay [16], in assay [19], in [20] and in assay [24] was Active. Moreover, the results for the inhibition of growth at 10 µM in assay [3], in assay [5] and in [22] were 91.6%, 78.4% and 86.9%, respectively. The Activity was 5.2% in assay [4]; 15.7% in assay [6]; 16.8% in assay [10]; 6.7% in assay [12]; 2% in assay [14]; 31.7% in [17]. In addition, the results for the Activity in assay [18], in assay [21] and in [23] were 10.3%, 9.2% and 3.5%, respectively. Also, the values for the IC50 in [7], in assay [11] and in assay [25] were 8.47 µM, 2.51 µM and 1.96 µM, respectively.

For the compound `O=C(/C=C/c1ccc(Cl)c([N+](=O)[O-])c1)/C=C/c1ccccc1Oc1ncnc2ccc(Cl)cc12`, the inhibition of growth at 10 µM in assay [3] was 70.2%; in [5] it was 52.5%; in [22] it was 62.5%. In addition, the results for the IC50 in assay [7], in assay [11] and in [25] were 12.3 µM, 9.76 µM and 5.32 µM, respectively.
